Assay results reported in patent US4551460A, “Pyrido[2,1-b]quinazoline derivatives useful as agents for treatment of allergic conditions and vascular disorders involving thrombosis” (priority 1983, dated 1985).
Where two headings read alike, the source gives them in different places.

Tests used:
[1] = tested on: SRS-A induced contraction of guinea pig ileum; experiment: In vitro SRS-A antagonism; conditions: 30 seconds pretreatment
Method: (j) In vitro SRS-A Antagonism
SRS-A was determined by bioassay on the guinea pig ileum using a modification of the method described by Orange et al., Adv. Immunol., 1969, 10, 105. A 1.5 cm segment of the ileum, obtained from male guinea pigs (175-200 g), was suspended in an organ bath containing Tyrodes solution with 10^-6 M atropine sulfate and 10^-6 M pyrilamine maleate. The bath was maintained at 37° C. and gassed with a mixture of 95 percent oxygen and 5 percent carbon dioxide. The ileum was attached to a strain gauge transducer and isotonic contractions recorded by a strip chart recorder. A resting tension of 0.5 g was applied and the tissue allowed to equilibrate for 1 hour.
The SRS-A used in these studies was obtained by challenging a large quantity of chopped lung fragments from actively sensitized guinea pigs with egg albumin in vitro. The animals were sensitized to egg albumin by an intraperitoneal injection of the antigen (1 ml of 10 mg/ml) in saline 28 to 45 days prior to challenge. The in vitro challenge was carried out by first preincubating the lung tissue (40 mg/ml) at 37° C. in Tyrodes solution for 5 minutes, adding the egg albumin ([…] final concentration) to the fragments and after a 10 minute challenge, separating the media containing the SRS-A from the lung tissue by filtration on Whatman #1 filter paper. The concentration of SRS-A in the filtrate was calibrated by comparison of the contraction amplitude elicited in the bioassay system by a given volume of the supernatant with contractions obtained by varying concentrations of histamine. One unit of SRS-A is equivalent to that quantity which will give the same contraction as 5 ng of histamine. After standarization, the SRS-A was stored in small aliquots at -80° C. for further use. […] SRS-A antagonism was determined by pretreating the ileum with drug for 30 seconds prior to the addition of a concentration of SRS-A which have a submaximal response, determination of the amplitude of contraction elicited in the presence of drug and then washing the ileum with Tyrodes. […]

[2] = tested on: leukotriene E induced bronchoconstriction; experiment: Guinea pig bronchoconstriction, in vivo (aerosol); design: species or system guinea pig (Hartly strain); conditions: aerosol at concentration inhibiting bronchoconstriction by 80%
Method: (c) Guinea Pig Bronchoconstriction, In Vivo (Aerosol):
Male guinea pigs (Hartly strain) weighing 300 to 500 g are anesthetized with urethane (2 g/kg) intraperitoneally and a polyethylene cannula is inserted into the jugular vein for drug administration. Tracheal pressure is recorded from a cannula inserted in the trachea and connected to a Statham pressure transducer. After surgical preparation of the animals, a period of time is allowed for pulmonary functions to stabilize. The test compound is administered according to the following protocol. Propranolol (0.1 mg/kg) is administered intravenously while the animals breathed spontaneously. Five minutes thereafter, the animals are exposed for a five minute period to a 1% (w/v) aerosol solution of test compound (adjusted to an alkaline pH where necessary for drug solubilization) or to distilled water of the appropriate pH (for control purposes). A Monaghan (Model 750) ultrasonic nebulizer is used to administer all test compounds by inhalation. The nebulizer ultrasonic frequency is adjusted to produce particles in the 1-8μ diameter range (average 3μ). Aqueous solutions are prepared fresh and introduced into the chamber of the nebulizer. The output of the nebulizer is made available to the animal by directing a bias flow of aerosol through a y tube connected to the tracheal cannula. At the end of the exposure period, the animals are paralyzed with succinylcholine (1.2 mg/kg, i.v.) and mechanically respirated (Harvard rodent respirator) at 40 breaths/minute and 2.5 cc tidal volume. Animals are then challenged with a maximum constrictory dose of leukotriene E delivered intravenously 30 seconds after administration of the succinylcholine.
The change (cm H2 O) between pre and peak ventilatory pressure readings is averaged for three control animals and five drug treated animals. The percent inhibition is calculated from the following formula:
(Control-Drug Tested/Control)×100
When various drug concentrations are tested, the percent inhibition at each concentration is plotted as log concentration (abscissa) versus percent inhibition (ordinate) and the IC50 is determined from linear regression analysis.
In order to determine the aerosol half-life (t 1/2), the animals are prepared as described above, except that the time between aerosol exposure and challenge with leukotriene E is varied. All compounds are administered at the concentration necessary to inhibit leukotriene-induced bronchoconstriction by 80%. Biological half-life is calculated from plots of time (abscissa) versus log percent inhibition (ordinate).

[3] = tested on: leukotriene E (LTE) induced skin wheal formation in rat skin; experiment: LTE-induced skin wheal formation in rat; assay type: in vivo; conditions: rat skin wheal, read-out: ID50 (the source's name)
Method: (a) Methodology for LTE-induced Skin Wheal Formation in Rat. The ability of a drug to inhibit leukotriene E (LTE) induced skin wheal formation in rat skin is measured. In this model system a dose of LTE which gives a maximal wheal response, is injected (in 0.05 ml of saline) intradermally into anesthetized rats which have been pretreated for 30 minutes with 50 mg/kg of pyrilamine maleate and 4 mg/kg of methyl […] maleate (both administered intraperitoneally). The animal is then immediately treated with test drug (at 10 mg/kg, i.v.) followed by an intravenous injection of Evans blue (0.5%) into the tail vein of the animal. Thirty minutes later the animals are sacrificed and the increase in capillary permeability induced by LTE is reflected by the migration of dye into the injection point in the skin (the response being quantitated by the size, in mm, of the dye spot in the skin). The average response in 5 animals (4 intradermal injections of LTE per animal) treated with the test compound is compared with the response elicited in a similar group of animals which were not treated with the drug. For oral studies, the test animals are pretreated two hours prior to intradermal injection of LTE.

[4] = tested on: leukotriene E induced bronchoconstriction; experiment: LTE-induced bronchoconstriction in guinea pigs, in vivo (i.v. / oral); design: species or system guinea pig (Hartley strain); conditions: Cavia porcellus, read-out: ID50 (the source's name)
[5] = tested on: histamine-induced constriction in guinea pig ilea; experiment: Antagonism of histamine-induced constriction in guinea pig ilea; conditions: 1×10^-7 M histamine
Method: (f) Antagonism of Histamine-induced Constriction in Guinea Pig Ilea
Antihistaminic activity was determined on a segment of guinea pig ileum that was suspended in a 37° C. bath of oxygenated Tyrodes solution. At 4 minute intervals, the ileum was challenged with 1×10^-7 M histamine for sufficient time to produce a peak contraction and then washed with fresh Tyrodes solution. After the tissue response to histamine had stabilized, the ileum was pretreated with the standard antihistaminic compound, pyrilamine maleate, for 1 minute prior to rechallenge with histamine, the contraction recorded, and the tissue washed with Tyrodes solution. […] By the IC50 for pyrilamine maleate in the test system was 1×10^-8 M. IC50 's for test drugs were determined by this same procedure.

[6] = po, orally (2 hours pretreatment)

CC(C)c1ccc2nc3ccc(C(=O)NCCCCc4cccnc4)cn3c(=O)c2c1 [Compound B, 2-(1-methylethyl)-N-[4-(3-pyridyl)butyl]-11-oxo-11H-pyrido[2,1-b]quinazoline-8-carboxamide]
IC50 [1]: 1000 nM
Biological half-life [2]: 7 min
ED50 ([3]; iv): 15 mg/kg
ED50 ([3]; po): 70 mg/kg
ED50 ([4]; iv): 0.3 mg/kg
ED50 [4, 6]: 60 mg/kg
IC50 [5]: 2000 nM

CC(C)c1ccc2nc3ccc(C(=O)NCCCCn4ccnc4)cn3c(=O)c2c1 [Compound A, N-[4-(1H-imidazol-1-yl)butyl]-2-(1-methylethyl)-11-oxo-11H-pyrido[2,1-b]quinazoline-8-carboxamide]
IC50 [1]: 1000 nM
Biological half-life [2]: 56 min
ED50 ([3]; iv): 30 mg/kg
ED50 ([3]; po): 46 mg/kg
ED50 ([4]; iv): 0.9 mg/kg
ED50 [4, 6]: 47 mg/kg
IC50 [5]: 1000 nM
